# According to ChEMBL document CHEMBL4402557, “Nidufexor (LMB763), a Novel FXR Modulator for the Treatment of Nonalcoholic Steatohepatitis” (J Med Chem, 2020):
# Active and inactive are the calls of the source. The calls are words filed in the database; no cut-off is given here.
# Columns and labels:
# Mus musculus = test: Anti Steato-hepatitic activity in STZ/HFD induced C57BL/6J mouse STAM model assessed as reduction in NAS at 25 mg/kg, po administered via oral gavage once daily for 3 weeks and measured on 9 week by H and E staining based assay; assay type: functional, organism-based
# [1] = Solubility of compound in pH 6.5 FASSIF at 2 mg measured for 5 to 60 mins by UV spectroscopic method; assay type: physicochemical
# Bile acid receptor [2] = target: T1, Bile acid receptor (Homo sapiens, UniProt Q96RI1); test: Agonist activity at FXR transfected in human HEK293T cells o-expressing pGL3/hBSEP/luc incubated for 24 hrs by Steady-Glo reagent based luciferase reporter gene assay; assay type: cell-based
# T1 sequence (Q96RI1 whole entry): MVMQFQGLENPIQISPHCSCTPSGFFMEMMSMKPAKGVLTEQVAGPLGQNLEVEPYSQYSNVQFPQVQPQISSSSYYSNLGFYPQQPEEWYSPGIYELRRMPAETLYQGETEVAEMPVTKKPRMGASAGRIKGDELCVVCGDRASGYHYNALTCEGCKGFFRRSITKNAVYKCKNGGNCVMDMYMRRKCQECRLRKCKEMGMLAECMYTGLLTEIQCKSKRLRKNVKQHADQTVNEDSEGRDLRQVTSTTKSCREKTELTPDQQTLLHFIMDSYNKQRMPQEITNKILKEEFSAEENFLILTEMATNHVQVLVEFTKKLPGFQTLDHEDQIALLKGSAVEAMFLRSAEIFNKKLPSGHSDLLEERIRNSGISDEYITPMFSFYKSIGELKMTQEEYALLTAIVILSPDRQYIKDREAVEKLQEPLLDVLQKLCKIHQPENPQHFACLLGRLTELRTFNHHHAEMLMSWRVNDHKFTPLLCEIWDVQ
# Bile acid receptor [3] = target: T1, Bile acid receptor; test: Agonist activity at GST-tagged human FXR-LBD (193 to 472 residues) using biotinylated SRC-1 peptide as substrate incubated for 1 hrs by HTRF assay
# [4] = Permeability of the compound by PAMPA; assay type: ADME
# [5] = Clearance in Wistar rat at 3 mg/kg, iv; assay type: ADME, organism-based; conditions: in vivo
# [6] = Oral bioavailability in Wistar rat at 10 mg/kg in presence of TRIS salt; assay type: ADME, organism-based; conditions: in vivo
# [7] = Oral bioavailability in Wistar rat at 10 mg/kg in presence of 0.5% CMC/0.5% Tween 80; assay type: ADME, organism-based; conditions: in vivo
# [8] = Half life in Wistar rat at 3 mg/kg, iv; assay type: ADME, organism-based; conditions: in vivo
# [9] = Volume of distribution at steady state in Wistar rat at 3 mg/kg, iv; assay type: ADME, organism-based; conditions: in vivo, read-out: Vdss
# [10] = Oral bioavailability in Wistar rat at 100 mg/kg in presence of TRIS salt; assay type: ADME, organism-based; conditions: in vivo
# [11] = Oral bioavailability in Wistar rat at 10 mg/kg in presence of PEG 300/D5W(3:1); assay type: ADME, organism-based; conditions: in vivo
# [12] = Lipophilicity, logD of compound at pH 6.8; assay type: physicochemical; conditions: buffer
smiles,measurement,setting,value
CC[C@H]1[C@@H](O)[C@@H]2[C@H](CC[C@]3(C)[C@@H]([C@H](C)CCC(=O)O)CC[C@@H]23)[C@@]2(C)CC[C@@H](O)C[C@@H]12,Activity,Mus musculus,inactive
CC(=O)NCCN(Cc1ccccc1)C(=O)c1nn(C)c2c1COc1ccccc1-2,solubility,[1],> 175 µM
CC(=O)NCCN(Cc1ccccc1)C(=O)c1nn(C)c2c1COc1ccc(C3CC3)cc1-2,solubility,[1],9 µM
CC(=O)NCCN(Cc1ccccc1)C(=O)c1c2c(nn1C)-c1cc(Br)ccc1OC2,EC50,Bile acid receptor [2],> 20 µM
same,EC50,Bile acid receptor [3],6 µM
Cn1nc(C(=O)N(CCNc2cc(C(=O)O)ccc2F)Cc2cccc(F)c2)c2c1-c1cc(F)ccc1OC2,solubility,[1],> 175 µM
same,permeability,[4],96%
same,clearance,[5],1.19 L/h/kg
same,bioavailability,[6],15%
same,bioavailability,[7],17%
same,half-life,[8],1.97 h
same,Vd,[9],1.43 L/kg
same,bioavailability,[10],12%
same,bioavailability,[11],22%
CC(=O)NCCN(Cc1ccccc1F)C(=O)c1nn(C)c2c1COc1ccc(Br)cc1-2,solubility,[1],< 2 µM
O=C(O)c1cc(F)c2nc(N3[C@@H]4CC[C@H]3C[C@@H](OCc3c(-c5ccccc5OC(F)(F)F)noc3C3CC3)C4)sc2c1 [TROPIFEXOR],solubility,[1],110 µM
same,logD,[12],3.2
CC(=O)NCCN(Cc1ccccc1)C(=O)c1nn(C)c2c1COc1ccc(Br)cc1-2,solubility,[1],73 µM
CC(=O)NCCN(Cc1ccccc1)C(=O)c1nn(C(C)C)c2c1COc1ccc(Br)cc1-2,EC50,Bile acid receptor [2],2.7 µM
same,EC50,Bile acid receptor [3],6 µM
CC(=O)NCCN(Cc1ccc(F)cc1)C(=O)c1nn(C)c2c1COc1ccc(Br)cc1-2,solubility,[1],41 µM
CC(=O)NCCN(Cc1ccccn1)C(=O)c1nn(C)c2c1COc1ccc(Br)cc1-2,solubility,[1],< 2 µM
CC(=O)NCCN(C)C(=O)c1nn(C)c2c1COc1ccccc1-2,EC50,Bile acid receptor [3],> 10 µM
CC(=O)NCCNC(=O)c1nn(C)c2c1COc1ccccc1-2,EC50,Bile acid receptor [3],> 10 µM
Cn1nc(C(=O)N(CC(=O)Nc2cc(C(=O)O)ccc2F)Cc2cccc(F)c2)c2c1-c1cc(F)ccc1OC2,solubility,[1],46 µM
same,permeability,[4],86%
same,clearance,[5],0.576 L/h/kg
same,bioavailability,[6],56%
same,bioavailability,[7],5%
same,half-life,[8],3.6 h
same,Vd,[9],1.6 L/kg
same,bioavailability,[10],28%
same,bioavailability,[11],36%
CC(=O)NCCN(Cc1ccccc1)C(=O)c1nn(C)c2c1COc1ccc(I)cc1-2,solubility,[1],3 µM
CC(=O)NCCN(Cc1cccc(F)c1)C(=O)c1nn(C)c2c1COc1ccc(Br)cc1-2,solubility,[1],80 µM
CC(=O)NCCN(Cc1ccccc1)C(=O)c1n[nH]c2c1COc1ccc(Br)cc1-2,EC50,Bile acid receptor [2],11 µM
same,EC50,Bile acid receptor [3],> 10 µM
CC(=O)NCCN(C(=O)c1nn(C)c2c1COc1ccc(Cl)cc1-2)C(C)c1ccccc1 (racemic),EC50,Bile acid receptor [2],> 10 µM
same,EC50,Bile acid receptor [3],> 10 µM
CC(=O)NCCN(Cc1ccccc1)C(=O)c1nn(C)c2c1COc1ccc(Cl)cc1-2,solubility,[1],> 175 µM
